Source: patent US20050171032A1, “Methods for the treatment of cancer” (priority 2002, published 2005)

Legend:
LNCaP-Cav-1 cells = test: EGFR and Akt1 phosphorylation by immunoblot, caveolin-1 transfected LNCaP cells; assay type: cell-based, human; settings: 2 μg/ml filipin 1 h, 5 ng/ml EGF 20 min, FIG. 4F
Procedure: LNCaP cells were used for all experiments shown. Prior to challenge with EGF (2 or 20 ng/ml), some groups of cells were treated with filipin (2 μg/ml) (lanes 7-12) for 1 h. Other cells (lanes 4-6, 10-12) were subsequently incubated with cyclodextrin/cholesterol complexes (Cholesterol) for 1 h to replete cholesterol (FIG. 4A). In this and subsequent panels, lysates were isolated following the various treatments and processed for immunoblot analysis. p-Akt refers to a phosphorylated form of Akt1 detected with a phospho-specific Ab (Ser-473). Cells were serum-starved overnight, then pretreated with 5 mM cyclodextrin for the indicated times (lanes 1-6), or treated for 1 h with varying concentrations of cyclodextrin (lanes 7-10), then treated immediately afterward with vehicle or with 5 ng/ml EGF (FIG. 4B). Cells were either mock-treated or treated with varying doses of filipin as indicated for 1 h followed by 5 ng/ml EGF treatment (FIG. 4C). Serum-containing medium was removed and cells were treated immediately with 2 μg/ml filipin alone under serum-free conditions for the times shown (FIG. 4D). No change in EGFR or Akt1 phosphorylation was observed when serum was removed and cells were not treated with filipin (not shown). […]

LNCaP cells [1] = test: Cell viability by Trypan blue exclusion; assay type: cell-based, human; settings: 1 h after filipin treatment, at the doses used; FIG. 2
Procedure: Mock- or filipin (2 μg/ml)-pretreated cells were incubated in serum-free medium with or without cholesterol/cyclodextrin (Cholesterol) complexes for 1 h at 37° C. followed by EGF treatment for 20 min. (FIG. 2A). All cells were subjected to SDEM and the I- and S-fractions analyzed by immunoblot. p-EGFR indicates EGFR phosphorylated on Y1173 detected with a phospho-specific Ab. Cell viability measured by Trypan blue exclusion 1 h after treatment of cells with filipin (FIG. 2B).

Akt1 = Akt1 phosphorylation (Ser-473) by immunoblot, LNCaP cells; assay type: cell-based, human; settings: FIG. 4A
Procedure: LNCaP cells were used for all experiments shown. Prior to challenge with EGF (2 or 20 ng/ml), some groups of cells were treated with filipin (2 μg/ml) (lanes 7-12) for 1 h. Other cells (lanes 4-6, 10-12) were subsequently incubated with cyclodextrin/cholesterol complexes (Cholesterol) for 1 h to replete cholesterol (FIG. 4A). In this and subsequent panels, lysates were isolated following the various treatments and processed for immunoblot analysis. p-Akt refers to a phosphorylated form of Akt1 detected with a phospho-specific Ab ([…]). […] Cell lysates were isolated following the various treatments and processed for immunoblot analysis. p-Akt=phosphorylated form of Akt detected with a phospho-specific Ab ([…]). […] In these experiments the apoptosis of cells treated with simvastatin or mock-treated, with or without raft reconstitution, was quantified by cell death detection ELISA (Roche). Cells were either mock-treated or treated with various doses of simvastatin as indicated for 16 hours and the amount of apoptosis was quantified by ELISA and is graphically represented as absorbance at 405 nm-490 nm vs. dose of statin drug±SD from triplicate determinations (FIG. 6B). The cells were treated either in simvastatin (Sim; 10 μM) or simvastatin (Sim) and cyclodextrin/cholesterol complex (+cholesterol) for 4 hours and the amount of apoptosis was quantified by ELISA (FIG. 6C). […]

[2] = tested on: prostate glandular hyperplasia; settings: dogs; published evidence (30); cited from earlier work
PC-3 cells = test: EGFR and Akt1 phosphorylation by immunoblot, PC-3 cells; assay type: cell-based, human; settings: 2 μg/ml filipin 1 h, 5 ng/ml EGF 20 min, FIG. 4F
Procedure: Prior to challenge with EGF (2 or 20 ng/ml), some groups of cells were treated with filipin (2 μg/ml) (lanes 7-12) for 1 h. […] In this and subsequent panels, lysates were isolated following the various treatments and processed for immunoblot analysis. p-Akt refers to a phosphorylated form of Akt1 detected with a phospho-specific Ab (Ser-473). […] LNCaP-Cav-1 cells and PC-3 cells were mock-treated or treated with 2 μg/ml filipin for 1 h at 37° C. […] Prior to the collection of cell lysates and immunoblot analysis, cells were stimulated with 5 ng/ml EGF for 20 min at 37° C.
Human PCa cell lines LNCaP and PC-3 were purchased from the American Type Culture Collection (ATCC; Rockville, Md.). Both cell lines were cultured in RPMI 1640 supplemented with 10% heat-inactivated FBS.

EGFR = EGFR phosphorylation by immunoblot of detergent fractions, LNCaP cells; assay type: cell-based, human
Procedure: Mock- or filipin (2 μg/ml)-pretreated cells were incubated in serum-free medium with or without cholesterol/cyclodextrin (Cholesterol) complexes for 1 h at 37° C. followed by EGF treatment for 20 min. […] All cells were subjected to SDEM and the I- and S-fractions analyzed by immunoblot. p-EGFR indicates EGFR phosphorylated on Y1173 detected with a phospho-specific Ab. Cell viability measured by Trypan blue exclusion 1 h after treatment of cells with filipin (FIG. 2B).
LNCaP cells were used for all experiments shown. Prior to challenge with EGF (2 or 20 ng/ml), some groups of cells were treated with filipin (2 μg/ml) (lanes 7-12) for 1 h. Other cells (lanes 4-6, 10-12) were subsequently incubated with cyclodextrin/cholesterol complexes (Cholesterol) for 1 h to replete cholesterol (FIG. 4A). In this and subsequent panels, lysates were isolated following the various treatments and processed for immunoblot analysis. p-Akt refers to a phosphorylated form of Akt1 detected with a phospho-specific Ab (Ser-473). Cells were serum-starved overnight, then pretreated with 5 mM cyclodextrin for the indicated times (lanes 1-6), or treated for 1 h with varying concentrations of cyclodextrin (lanes 7-10), then treated immediately afterward with vehicle or with 5 ng/ml EGF (FIG. 4B). […]

LNCaP cells [3] = test: Apoptosis assays (TUNEL/flow cytometry, cell death detection ELISA, DNA ladder) in LNCaP cells; assay type: cell-based, human; settings: serum-free, 20 μM LY294002 20 h, 2 μg/ml filipin 1 h, FIG. 3
Procedure: Apoptosis was quantified by TUNEL in combination with flow cytometry (FIG. 3A). LNCaP cells were seeded 24 h before treatments in 6-well plates at a density of 2-4×10^5/well. Conditions shown are: 20 h in serum-free medium (SFM); 20 μM LY294002 (LY); 20 μM LY294002 with 10 ng/ml EGF treatment (LY+E); 2 μg/ml filipin for 1 h (F); filipin treatment as (F) with 10 ng/ml EGF for 20 h (F+E); treatment with 2 μg/ml filipin and cyclodextrin/cholesterol complexes (C) for 1 h, followed by incubation with serum-free medium containing 20 μM LY294002 and 10 ng/ml EGF for 20 h (F+C+LY+E). Quantitative measurement of DNA fragmentation was performed with a cell death detection ELISA kit (FIG. 3B). […]
A quantitative sandwich ELISA was performed to measure mono- and oligonucleosomes in the cytoplasmic fraction of cell lysates according to the manufacturer's manual (Cell death detection ELISA) (Roche, Indianapolis, Ind.). Briefly, 1.5-2.0×10^5 cells/well were seeded in 6-well plates for 24 h, cell lysates were collected after various treatments as indicated, and the amount of histone-associated DNA fragments was quantified by spectrophotometric measurement of peroxidase activity retained in the immunocomplex (415 nm) against the substrate solution as a blank (490 nm). Apoptosis was also evaluated by the TUNEL method, using the In Situ Cell Death Detection Kit (Roche, Indianapolis, Ind.).

[4] = tested on: Human primary culture prostate epithelial cells; test: Apoptosis by cell death detection ELISA in primary culture prostate epithelial cells; assay type: cell-based; settings: various concentrations simvastatin, 16 hours; FIG. 7
Procedure: Human primary culture prostate epithelial cells were treated with various concentrations simvastatin or were mock treated as indicated at 37 °C for 16 hours. Subsequently the cells were lysed and apoptosis was quantified by cell death detection ELISA (Roche).

Row | Compound | ligand-induced Akt1 phosphorylation (LNCaP-Cav-1 cells) | ligand-induced EGFR phosphorylation (LNCaP-Cav-1 cells) | cells that excluded Trypan blue (LNCaP cells [1]) [%] | EGF-induced Akt1 phosphorylation (Akt1; 2 μg/ml filipin 1 h, 20 ng/ml EGF) | constitutive and EGF-induced Akt1 phosphorylation (Akt1; varying filipin doses and times, C, D) | reduction of prostate glandular hyperplasia [2] | toxicity [2] | ligand-induced Akt1 phosphorylation (PC-3 cells) | ligand-induced EGFR phosphorylation (PC-3 cells) | ligand-dependent EGFR phosphorylation in the I-fraction (EGFR; filipin pretreatment 2 μg/ml, then EGF 20 min, FIG. 2) | constitutive and EGF-induced EGFR phosphorylation (EGFR; varying filipin doses and times, FIG. 4A, C, D) | apoptosis (LNCaP cells [3]) | apoptosis in normal prostatic cells [4]
1 | CCCCC[C@@H](O)[C@H]1C(=O)O[C@H](C)[C@@H](O)/C=C/C=C/C=C/C=C/C=C(\C)[C@@H](O)C[C@H](O)C[C@H](O)C[C@H](O)C[C@H](O)C[C@H](O)C[C@@H]1O [filipin, Filipin] | suppressed | suppressed | 100 | substantially reduced | decreased with filipin treatment in a dose- and time-dependent fashion | up to 75% | no toxicity | suppressed | suppressed | suppressed | decreased with filipin treatment in a dose- and time-dependent fashion | stimulated apoptosis to a similar extent as the PI3K inhibitor | 
2 | CCC(C)(C)C(=O)O[C@H]1C[C@@H](C)C=C2C=C[C@H](C)[C@H](CC[C@@H]3C[C@@H](O)CC(=O)O3)[C@H]21 [simvastatin] |  |  |  |  |  |  |  |  |  |  |  |  | does not cause apoptosis
